# Literature values, collected in PMC9851200, “Multiparameter phenotypic screening for endogenous TFEB and TFE3 translocation identifies novel chemical series modulating lysosome function” (Autophagy, 2022).
# Experiments:
# Parameters in all cases: method as in original PKIS2 published data
# [1] = target: T1, kinases (KINOMEscan panel) (Homo sapiens, UniProt Q8NG66); settings: Published KINOMEscan; ref original PKIS2 published data; cited from earlier work
# T1 sequence (Q8NG66 1-645): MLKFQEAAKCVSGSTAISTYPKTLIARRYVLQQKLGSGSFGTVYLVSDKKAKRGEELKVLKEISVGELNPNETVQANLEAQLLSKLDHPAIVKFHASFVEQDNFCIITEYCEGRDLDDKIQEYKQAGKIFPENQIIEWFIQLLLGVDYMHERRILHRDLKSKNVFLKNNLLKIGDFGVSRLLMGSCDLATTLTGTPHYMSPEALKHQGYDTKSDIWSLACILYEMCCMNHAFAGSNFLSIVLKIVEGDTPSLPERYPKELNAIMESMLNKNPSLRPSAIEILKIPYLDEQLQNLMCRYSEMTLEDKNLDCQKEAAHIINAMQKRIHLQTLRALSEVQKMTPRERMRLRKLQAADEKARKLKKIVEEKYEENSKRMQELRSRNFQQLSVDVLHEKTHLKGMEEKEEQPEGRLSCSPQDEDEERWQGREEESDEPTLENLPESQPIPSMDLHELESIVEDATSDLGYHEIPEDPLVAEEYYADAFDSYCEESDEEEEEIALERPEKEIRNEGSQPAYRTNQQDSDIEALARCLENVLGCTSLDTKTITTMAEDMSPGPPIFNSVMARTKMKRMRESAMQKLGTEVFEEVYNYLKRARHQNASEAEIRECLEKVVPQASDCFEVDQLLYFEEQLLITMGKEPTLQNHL
# [2] = target: kinases (KINOMEscan panel) (Homo sapiens, UniProt Q9P286); settings: kinase PAK5; Published KINOMEscan; ref original PKIS2 published data; cited from earlier work
# Sequence of kinases (KINOMEscan panel) (Homo sapiens, UniProt Q9P286) (Q9P286 whole entry): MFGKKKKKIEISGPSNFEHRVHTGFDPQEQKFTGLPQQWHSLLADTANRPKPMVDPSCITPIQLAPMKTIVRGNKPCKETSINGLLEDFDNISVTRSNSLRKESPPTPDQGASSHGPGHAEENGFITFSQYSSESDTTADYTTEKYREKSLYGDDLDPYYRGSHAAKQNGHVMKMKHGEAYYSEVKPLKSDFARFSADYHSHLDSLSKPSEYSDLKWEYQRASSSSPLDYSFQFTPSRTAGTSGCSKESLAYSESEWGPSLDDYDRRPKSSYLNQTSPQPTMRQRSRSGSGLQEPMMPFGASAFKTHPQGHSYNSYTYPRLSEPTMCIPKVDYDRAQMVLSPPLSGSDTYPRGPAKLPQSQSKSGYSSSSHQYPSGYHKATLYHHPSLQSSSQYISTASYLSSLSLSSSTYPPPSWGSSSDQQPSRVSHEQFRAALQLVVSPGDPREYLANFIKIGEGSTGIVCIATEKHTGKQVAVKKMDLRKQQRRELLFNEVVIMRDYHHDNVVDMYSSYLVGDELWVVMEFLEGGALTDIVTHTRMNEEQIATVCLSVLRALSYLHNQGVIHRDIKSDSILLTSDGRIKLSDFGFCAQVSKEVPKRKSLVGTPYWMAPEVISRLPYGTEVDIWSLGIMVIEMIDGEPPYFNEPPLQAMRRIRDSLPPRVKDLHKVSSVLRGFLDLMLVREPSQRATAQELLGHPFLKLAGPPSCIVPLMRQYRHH
# [3] = target: T2, kinases (KINOMEscan panel) (Homo sapiens, UniProt O00444); settings: kinase PLK4; Published KINOMEscan; ref original PKIS2 published data; cited from earlier work
# T2 sequence (O00444 1-970): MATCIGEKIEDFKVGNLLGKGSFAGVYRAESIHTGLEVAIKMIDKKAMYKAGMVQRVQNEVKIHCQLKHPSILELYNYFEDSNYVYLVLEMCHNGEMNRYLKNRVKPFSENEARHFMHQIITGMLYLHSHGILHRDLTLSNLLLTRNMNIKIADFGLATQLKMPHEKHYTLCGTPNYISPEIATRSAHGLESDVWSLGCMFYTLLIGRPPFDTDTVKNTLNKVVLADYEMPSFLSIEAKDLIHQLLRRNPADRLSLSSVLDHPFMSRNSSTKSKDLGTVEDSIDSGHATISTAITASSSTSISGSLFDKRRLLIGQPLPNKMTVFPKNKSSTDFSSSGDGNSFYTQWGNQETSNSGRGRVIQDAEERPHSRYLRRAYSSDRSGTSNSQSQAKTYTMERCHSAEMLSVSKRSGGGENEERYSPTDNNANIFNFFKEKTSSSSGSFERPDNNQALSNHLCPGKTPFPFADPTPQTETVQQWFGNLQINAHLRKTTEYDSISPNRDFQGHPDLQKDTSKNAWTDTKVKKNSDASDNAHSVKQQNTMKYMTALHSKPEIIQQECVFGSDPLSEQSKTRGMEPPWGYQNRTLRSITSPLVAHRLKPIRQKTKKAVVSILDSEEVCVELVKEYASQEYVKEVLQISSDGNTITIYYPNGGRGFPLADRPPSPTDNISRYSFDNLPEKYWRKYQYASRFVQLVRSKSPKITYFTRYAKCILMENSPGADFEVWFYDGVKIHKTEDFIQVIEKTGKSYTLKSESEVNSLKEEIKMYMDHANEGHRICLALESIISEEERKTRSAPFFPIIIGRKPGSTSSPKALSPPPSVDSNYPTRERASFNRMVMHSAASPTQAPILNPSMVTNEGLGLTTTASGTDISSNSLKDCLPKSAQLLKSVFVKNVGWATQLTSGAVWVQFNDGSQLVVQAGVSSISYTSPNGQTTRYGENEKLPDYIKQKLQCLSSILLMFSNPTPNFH
# [4] = target: T3, kinases (KINOMEscan panel) (Homo sapiens, UniProt Q59H18); settings: kinase TNNI3K; Published KINOMEscan; ref original PKIS2 published data; cited from earlier work
# T3 sequence (Q59H18 1-835): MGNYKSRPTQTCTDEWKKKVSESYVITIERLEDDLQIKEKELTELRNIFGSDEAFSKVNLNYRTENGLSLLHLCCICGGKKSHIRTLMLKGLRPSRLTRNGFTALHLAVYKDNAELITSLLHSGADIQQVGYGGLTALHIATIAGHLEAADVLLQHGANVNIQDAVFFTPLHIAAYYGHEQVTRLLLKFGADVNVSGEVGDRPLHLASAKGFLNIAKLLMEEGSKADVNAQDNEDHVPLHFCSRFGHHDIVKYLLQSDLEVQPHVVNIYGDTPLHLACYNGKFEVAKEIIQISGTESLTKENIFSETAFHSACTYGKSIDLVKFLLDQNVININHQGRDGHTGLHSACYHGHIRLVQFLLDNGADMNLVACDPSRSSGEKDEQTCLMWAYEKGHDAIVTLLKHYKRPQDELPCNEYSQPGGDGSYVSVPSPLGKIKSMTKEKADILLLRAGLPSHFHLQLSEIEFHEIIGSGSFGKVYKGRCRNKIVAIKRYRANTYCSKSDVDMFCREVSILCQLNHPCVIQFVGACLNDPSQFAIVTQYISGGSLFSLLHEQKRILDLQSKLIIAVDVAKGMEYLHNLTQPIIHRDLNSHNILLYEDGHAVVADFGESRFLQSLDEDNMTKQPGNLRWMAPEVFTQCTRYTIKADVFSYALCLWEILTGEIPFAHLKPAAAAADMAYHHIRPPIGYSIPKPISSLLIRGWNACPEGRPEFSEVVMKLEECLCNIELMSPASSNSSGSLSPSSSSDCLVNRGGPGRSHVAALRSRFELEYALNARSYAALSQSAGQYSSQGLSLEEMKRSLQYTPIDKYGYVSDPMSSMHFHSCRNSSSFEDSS
# [5] = target: kinases (KINOMEscan panel) (Homo sapiens, UniProt P11362); settings: kinase FGFR1; Published KINOMEscan; ref original PKIS2 published data; cited from earlier work
# Sequence of kinases (KINOMEscan panel) (Homo sapiens, UniProt P11362) (P11362 22-822): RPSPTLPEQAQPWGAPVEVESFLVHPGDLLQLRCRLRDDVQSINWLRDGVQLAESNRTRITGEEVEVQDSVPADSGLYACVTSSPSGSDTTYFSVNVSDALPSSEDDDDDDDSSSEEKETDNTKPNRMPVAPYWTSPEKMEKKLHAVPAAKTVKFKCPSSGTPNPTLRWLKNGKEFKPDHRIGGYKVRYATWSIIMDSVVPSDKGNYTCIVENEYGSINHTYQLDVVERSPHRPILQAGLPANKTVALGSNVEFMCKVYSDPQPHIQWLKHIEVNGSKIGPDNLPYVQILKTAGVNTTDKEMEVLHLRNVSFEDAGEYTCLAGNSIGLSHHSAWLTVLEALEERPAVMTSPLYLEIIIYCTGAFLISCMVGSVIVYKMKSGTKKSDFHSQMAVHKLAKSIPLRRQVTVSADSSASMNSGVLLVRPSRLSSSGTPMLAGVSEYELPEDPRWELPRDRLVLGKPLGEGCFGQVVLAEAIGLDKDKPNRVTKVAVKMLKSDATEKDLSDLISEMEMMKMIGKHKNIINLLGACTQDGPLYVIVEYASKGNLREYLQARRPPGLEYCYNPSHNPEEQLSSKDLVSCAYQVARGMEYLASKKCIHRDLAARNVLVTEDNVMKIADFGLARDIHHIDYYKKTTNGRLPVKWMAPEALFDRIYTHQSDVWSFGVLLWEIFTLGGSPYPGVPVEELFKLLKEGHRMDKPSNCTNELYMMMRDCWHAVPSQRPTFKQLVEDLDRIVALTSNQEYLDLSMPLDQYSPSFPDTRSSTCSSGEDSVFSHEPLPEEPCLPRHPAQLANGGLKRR
# [6] = target: kinases (KINOMEscan panel) (Homo sapiens, UniProt P27448); settings: MARK3; Published KINOMEscan; ref original PKIS2 published data; cited from earlier work
# Sequence of kinases (KINOMEscan panel) (Homo sapiens, UniProt P27448) (P27448 whole entry): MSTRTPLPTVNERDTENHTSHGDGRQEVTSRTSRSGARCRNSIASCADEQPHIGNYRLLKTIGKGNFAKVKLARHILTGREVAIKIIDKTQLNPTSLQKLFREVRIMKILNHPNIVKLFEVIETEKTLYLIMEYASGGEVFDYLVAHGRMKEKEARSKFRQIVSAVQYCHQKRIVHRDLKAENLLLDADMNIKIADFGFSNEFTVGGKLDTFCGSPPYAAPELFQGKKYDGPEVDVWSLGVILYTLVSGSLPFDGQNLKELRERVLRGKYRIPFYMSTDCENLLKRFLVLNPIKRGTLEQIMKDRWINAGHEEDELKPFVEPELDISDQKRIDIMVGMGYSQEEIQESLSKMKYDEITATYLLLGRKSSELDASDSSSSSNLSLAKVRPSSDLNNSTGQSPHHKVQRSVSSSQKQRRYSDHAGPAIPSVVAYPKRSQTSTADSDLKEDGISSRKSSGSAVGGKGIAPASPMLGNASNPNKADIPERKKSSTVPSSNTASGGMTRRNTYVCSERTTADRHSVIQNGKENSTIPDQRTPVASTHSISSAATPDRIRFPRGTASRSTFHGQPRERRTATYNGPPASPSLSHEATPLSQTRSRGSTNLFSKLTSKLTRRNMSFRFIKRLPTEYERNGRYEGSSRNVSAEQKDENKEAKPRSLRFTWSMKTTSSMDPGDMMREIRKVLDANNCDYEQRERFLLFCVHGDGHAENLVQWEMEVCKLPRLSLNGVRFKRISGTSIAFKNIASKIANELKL
smiles,measurement,setting,value
Cc1cccc(-c2nc(Nc3ccncc3)c3ccccc3n2)n1 [NK215],KINOMEscan NEK11,[1],0
same,KINOMEscan PAK5,[2],0
same,KINOMEscan PLK4,[3],0
same,KINOMEscan TNNI3K,[4],20
same,KINOMEscan FGFR1,[5],5
same,KINOMEscan MARK3,[6],32
